Data taken from US20250136618A1, “ANTIBIOTIC PYRAZINOTHIAZINE DERIVATIVES AND PROCESS OF PREPARATION THEREOF” (Bugworks Research India PVT Ltd, priority 2021, published 2025).
Converted amounts (≈) assume the structure as drawn.

Legend:
Format in all cases: cell-based
Pseudomonas aeruginosa = assay: MIC90 determination, clinical strains (CLSI)
Citrobacter freundii = assay: MIC90 determination, clinical strains (CLSI)
Morganella morganii = assay: MIC90 determination, clinical strains (CLSI)
Escherichia coli = assay: MIC90 determination, clinical strains (CLSI)
CHO-K1 cells = assay: In-vitro micronucleus assay
Procedure: Genetic toxicology studies were performed on the compounds of the present disclosure to assess their ability to cause DNA damage. The in-vitro micronucleus assay measured the concentration (μM) of the compound at which micronuclei formation occurred. A micronuclei formation at lower concentration indicates more genetic damage or genotoxicity.
Micronucleus formation is a hallmark of genotoxicity, and the micronucleus assay is an important component of genotoxicity screening. Micronuclei are chromatin-containing bodies that represent fragments or even whole chromosomes that were not incorporated into a daughter cell nucleus at mitosis. The purpose of the assay is to detect agents that induce chromosome damage leading to the induction of micronuclei in interphase cells. The in vitro micronucleus assay was conducted in CHO-K1 cells according to the procedure described by Diaz, D et al [Mutat Res. 630(1-2):1-13. […] The formation of the micronucleus is identified by image-based high content analysis from binucleated cells.

[1] = tested on: Providencia rettgeri, P. stuartii; assay: MIC90 determination, clinical strains (CLSI)
Proteus mirabilis = assay: MIC90 determination, clinical strains (CLSI)
Enterobacter cloacae = assay: MIC90 determination, clinical strains (CLSI)
Acinetobacter baumannii = assay: MIC90 determination, clinical strains (CLSI)
Serratia marcescens = assay: MIC90 determination, clinical strains (CLSI)
[2] = tested on: Acinetobacter baumannii ATCC 19606; assay: Minimum Inhibitory Concentration (MIC) in LB media
From the text: (§1) The compounds of Formula Ia and Formula Ib are of interest due to their potent antibacterial effects. The ability of the compounds disclosed herein to achieve an antibacterial effect may be evaluated with regard to their ability to inhibit the growth of bacterial species like Escherichia coli ATCC 25922, Staphylococcus aureus ATCC 29213, Klebsiella pneumoniae ATCC 13883, Acinetobacter baumannii ATCC 19606, Pseudomonas aeruginosa ATCC 27853 and Enterococcus faecalis ATCC 29212 using an assay based on the following Minimum Inhibitory Concentration (MIC) protocol:
(§2) The test bacteria were grown in Luria Bertani Broth (HIMEDIA M1245), 25 g of the powder was dissolved in 1000 ml distilled water and sterilized by autoclaving at 15 lbs pressure (121° C.) for 20 minutes. The medium sterility was checked by incubating at 37° C. for a period of 48 h. Bacterial cultures that were stored as glycerol stocks at −80° C. were subcultured on LB agar plates to obtain isolated colonies. A single colony of each strain was cultured in LB broth. The cultures were incubated at 37° C., 200 rpm till they reached an optical density (OD at 600 nm) of 0.8 to 1. This log phase culture was diluted in LB broth to a cell number of 5-8*10^5 CFU/mL to be used as inoculum for MIC experiments. Test compounds were dissolved in dimethyl sulfoxide (DMSO) to a stock concentration of 4 mg/ml. A two-fold dilution series of this DMSO stock was prepared in a 96 well V bottom microtitre plate from rows A to H. A 3 μL volume of these dilutions are transferred to a 96-well flat bottom microtitre assay plate. Controls to monitor the effects of DMSO and media sterility were included. Each well was inoculated with 150 μL of the above diluted culture. The plates were incubated at 37° C. overnight in a humidified incubator. The following morning, the plates were read using a Spectrophotometer at 600 nm wavelength. […] The antibacterial activity (MIC) determined against representative gram-positive (S. aureus, E. faecalis) and gram-negative (E. coli, Aeruginosa, K. pneumoniae, and A. baumannii) pathogen are reported Table 1.

[3] = tested on: Staphylococcus aureus ATCC 29213; assay: Minimum Inhibitory Concentration (MIC) in LB media
From the text: as §1, §2

[4] = tested on: Klebsiella pneumoniae ATCC 13883; assay: Minimum Inhibitory Concentration (MIC) in LB media
From the text: as §1, §2

[5] = tested on: Escherichia coli ATCC 25922; assay: Minimum Inhibitory Concentration (MIC) in LB media
From the text: as §1, §2

[6] = tested on: Pseudomonas aeruginosa ATCC 27853; assay: Minimum Inhibitory Concentration (MIC) in LB media
From the text: as §1, §2

[7] = tested on: Enterococcus faecalis ATCC 29212; assay: Minimum Inhibitory Concentration (MIC) in LB media
From the text: as §1, §2

hERG potassium channel = hERG potassium channel (Homo sapiens (Human), UniProt Q12809); assay: hERG inhibition assay (Qpatch HTX automated electrophysiology); conditions: CHO cell line expressing hERG, whole-cell patch clamp
Sequence of hERG potassium channel (Q12809 whole entry): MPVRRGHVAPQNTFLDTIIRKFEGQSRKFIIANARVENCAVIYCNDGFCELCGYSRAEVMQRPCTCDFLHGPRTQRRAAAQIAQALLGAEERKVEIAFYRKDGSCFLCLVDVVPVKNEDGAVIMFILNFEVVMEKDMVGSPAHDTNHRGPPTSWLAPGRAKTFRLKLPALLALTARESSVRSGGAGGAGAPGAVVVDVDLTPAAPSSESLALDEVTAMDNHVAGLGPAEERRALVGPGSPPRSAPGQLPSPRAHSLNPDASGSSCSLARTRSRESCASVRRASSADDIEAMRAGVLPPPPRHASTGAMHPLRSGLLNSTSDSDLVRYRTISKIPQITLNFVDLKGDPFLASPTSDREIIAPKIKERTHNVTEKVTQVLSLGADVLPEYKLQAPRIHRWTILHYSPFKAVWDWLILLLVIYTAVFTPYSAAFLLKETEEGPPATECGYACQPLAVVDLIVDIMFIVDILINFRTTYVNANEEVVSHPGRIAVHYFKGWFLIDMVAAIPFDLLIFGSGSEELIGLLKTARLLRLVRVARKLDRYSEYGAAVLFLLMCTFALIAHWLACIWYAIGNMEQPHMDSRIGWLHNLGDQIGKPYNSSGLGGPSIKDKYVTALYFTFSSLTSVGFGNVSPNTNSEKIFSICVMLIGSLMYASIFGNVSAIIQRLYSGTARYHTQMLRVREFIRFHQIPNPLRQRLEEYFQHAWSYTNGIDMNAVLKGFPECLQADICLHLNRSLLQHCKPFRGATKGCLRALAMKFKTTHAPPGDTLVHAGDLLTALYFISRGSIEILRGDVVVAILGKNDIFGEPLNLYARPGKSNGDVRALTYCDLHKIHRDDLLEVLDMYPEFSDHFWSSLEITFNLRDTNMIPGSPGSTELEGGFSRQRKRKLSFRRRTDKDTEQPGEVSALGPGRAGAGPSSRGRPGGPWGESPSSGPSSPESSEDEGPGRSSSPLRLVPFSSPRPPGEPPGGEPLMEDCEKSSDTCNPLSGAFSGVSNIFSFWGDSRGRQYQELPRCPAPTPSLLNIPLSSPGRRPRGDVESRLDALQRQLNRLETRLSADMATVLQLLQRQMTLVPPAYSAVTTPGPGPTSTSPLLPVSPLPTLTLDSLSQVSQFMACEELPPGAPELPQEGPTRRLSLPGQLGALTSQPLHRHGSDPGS
Procedure: Electrophysiological recordings were made from a Chinese Hamster Ovary cell line stably expressing the full-length hERG potassium channel. Single cell ionic currents were measured in whole-cell patch clamp configuration at room temperature (21-23° C.) using the Qpatch HTX platform (Sophion). Intracellular solution contained (mM): 120 KF, 20 KCl, 10 EGTA, 10 HEPES and was buffered to pH 7.3. […] Cells were clamped at a holding potential of −80 mV. Cells were stepped to +20 mV for 2 s then −40 mV for 3 s before returning to the holding potential. […] Compounds were then incubated for 2 minutes prior to a second measurement of ion channel current using an identical pulse train.

[8] = tested on: Klebsiella aerogenes, K. oxytoca; assay: MIC90 determination, clinical strains (CLSI)
Klebsiella pneumoniae = assay: MIC90 determination, clinical strains (CLSI)

`Cn1c(=O)ccc2ncc(OCCNC[C@@H]3CN(c4cnc5c(n4)NC(=O)CS5)C(=O)O3)nc21` [Compound 4, (R)-5-(((2-((5-methyl-6-oxo-5,6-dihydropyrido[2,3-b]pyrazin-3-yl)oxy)ethyl)amino)methyl)-3-(3-oxo-3,4-dihydro-2H-pyrazino[2,3-b][1,4]thiazin-6-yl)oxazolidin-2-one] gave an MIC90 (Pseudomonas aeruginosa; Pseudomonas aeruginosa, N=34, read-out: MIC 90 Pseudomonas aeruginosa) of 4 µg/mL (≈ 8.26 µM), an MIC90 (Citrobacter freundii; Citrobacter freundii, N=19, read-out: MIC 90 Citrobacter freundii) of 2 µg/mL (≈ 4.13 µM) and an MIC90 (Morganella morganii; Morganella morganii, N=11, read-out: MIC 90 Morganella morganii) of 2 µg/mL (≈ 4.13 µM). The MIC90 (Escherichia coli; Escherichia coli, N=38, read-out: MIC 90 Escherichia coli) was 0.5 µg/mL (≈ 1.03 µM), the “% (in-vitro micronucleus assay)” value (CHO-K1 cells; Chinese hamster) was 0.76% and the MIC90 ([1]; N=12, read-out: MIC 90 Providencia rettgeri, P. stuartii) was 2 µg/mL (≈ 4.13 µM). The MIC90 (Proteus mirabilis; Proteus mirabilis, N=12, read-out: MIC 90 Proteus mirabilis) was 4 µg/mL (≈ 8.26 µM), the MIC90 (Enterobacter cloacae; Enterobacter cloacae, N=26, read-out: MIC 90 Enterobacter cloacae) was 8 µg/mL (≈ 16.5 µM) and the MIC90 (Acinetobacter baumannii; Acinetobacter baumannii, N=38, read-out: MIC 90 Acinetobacter baumannii) was 1 µg/mL (≈ 2.06 µM). For the same compound, the MIC90 (Serratia marcescens; Serratia marcescens, N=15, read-out: MIC 90 Serratia marcescens) was 16 µg/mL (≈ 33 µM), the MIC ([2]; Acinetobacter baumannii, ATCC19606) was 0.03 µg/mL (≈ 0.0619 µM) and the MIC ([3]; Staphylococcus aureus, ATCC29213, read-out: Minimum Inhibitory Concentration S. aureus ATCC 29213) was 0.015 µg/mL (≈ 0.031 µM). The MIC ([4]; Klebsiella pneumoniae, ATCC13883, read-out: Minimum Inhibitory Concentration K. pneumoniae ATCC 13883) was 0.06 µg/mL (≈ 0.124 µM), the MIC ([5]; Escherichia coli, ATCC25922, read-out: Minimum Inhibitory Concentration E. coli ATCC 25922) was 0.06 µg/mL (≈ 0.124 µM) and the MIC ([6]; Pseudomonas aeruginosa, ATCC27853) was 0.5 µg/mL (≈ 1.03 µM). The MIC ([7]; Enterococcus faecalis, ATCC29212, read-out: Minimum Inhibitory Concentration E. faecalis ATCC 29212) was 0.06 µg/mL (≈ 0.124 µM), the IC50 (hERG potassium channel) was over 300 µM and the MIC90 ([8]; N=17, read-out: MIC 90 Klebsiella aerogenes, K. oxytoca) was 4 µg/mL (≈ 8.26 µM). It also gave an MIC90 (Klebsiella pneumoniae; Klebsiella pneumoniae, N=86, read-out: MIC 90 Klebsiella pneumoniae) of 8 µg/mL (≈ 16.5 µM).
“(S)-5-(((2-((4-Methyl-d3)-3-oxo-1,2,3,4-tetrahydropyrido[2,3-b]pyrazin-6-yl)oxy)ethyl)amino)methyl)-3-(3-oxo-3,4-dihydro-2H-pyrazino[2,3-b][1,4]thiazin-6-yl)oxazolidin-2-one [Compound 10]” was tested, and the “MIC 90 Pseudomonas aeruginosa” value (Pseudomonas aeruginosa; N=34) was 4 µg/mL, the “MIC 90 Citrobacter freundii” value (Citrobacter freundii; N=19) was 2 µg/mL and the “MIC 90 Morganella morganii” value (Morganella morganii; N=11) was 1 µg/mL. For the same compound, the “MIC 90 Escherichia coli” value (Escherichia coli; N=38) was 0.5 µg/mL, the “genotoxicity risk (in words)” value (CHO-K1 cells) was “completely devoid of any genotoxicity risk” and the “% (in-vitro micronucleus assay)” value (CHO-K1 cells; CHO-K1 cells) was 0.45%. The “In vitro micronucleus forming concentration” value (CHO-K1 cells; CHO-K1 cells) was over 1000 µM, the “MIC 90 Providencia rettgeri, P. stuartii” value ([1]; N=12) was 1 µg/mL and the “MIC 90 Proteus mirabilis” value (Proteus mirabilis; N=12) was 4 µg/mL. For the same compound, the “MIC 90 Enterobacter cloacae” value (Enterobacter cloacae; N=26) was 8 µg/mL, the “MIC 90 Acinetobacter baumannii” value (Acinetobacter baumannii; N=38) was 1 µg/mL and the “MIC 90 Serratia marcescens” value (Serratia marcescens; N=15) was 16 µg/mL. The “Minimum Inhibitory Concentration A. baumannii ATCC 19606” value [2] was 0.06 µg/mL, the “Minimum Inhibitory Concentration S. aureus ATCC 29213” value [3] was under 0.015 µg/mL and the “Minimum Inhibitory Concentration K. pneumoniae ATCC 13883” value [4] was 0.06 µg/mL. The “Minimum Inhibitory Concentration E. coli ATCC 25922” value [5] was 0.06 µg/mL, the “Minimum Inhibitory Concentration Aeruginosa ATCC 27853” value [6] was 1 µg/mL and the “Minimum Inhibitory Concentration E. faecalis ATCC 29212” value [7] was 0.125 µg/mL. For the same compound, the IC50 (hERG potassium channel) was 157 µM, the “MIC 90 Klebsiella aerogenes, K. oxytoca” value ([8]; N=17) was 2 µg/mL and the “MIC 90 Klebsiella pneumoniae” value (Klebsiella pneumoniae; N=86) was 8 µg/mL.
